{
  "source": "paper doi:10.1101/2022.07.12.499690v1",
  "about": "(biorxiv, 2022)",
  "target": "PD-L1 (Homo sapiens, UniProt Q9NZQ7)",
  "sequence (Q9NZQ7 19-290)": "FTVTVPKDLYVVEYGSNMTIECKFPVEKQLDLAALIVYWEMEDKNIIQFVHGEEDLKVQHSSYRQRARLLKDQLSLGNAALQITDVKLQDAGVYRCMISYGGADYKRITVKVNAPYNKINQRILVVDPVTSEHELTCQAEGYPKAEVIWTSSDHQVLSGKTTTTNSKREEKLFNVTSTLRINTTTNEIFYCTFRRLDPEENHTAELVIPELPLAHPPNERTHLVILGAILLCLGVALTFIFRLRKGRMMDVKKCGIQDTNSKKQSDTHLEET",
  "assay": "bio-affinity ultrafiltration, UPLC-HRMS",
  "assay_type": "binding",
  "conditions": "[…] h incubation with compound; denatured PD-L1 as control",
  "data": [
    {"smiles": "NCCc1c[nH]c2ccccc12", "note": "[tryptamine]", "values": [
      {"measurement": "relative peak area enhancement", "value": 40.98, "unit": "%"}
    ]}
  ]
}
